Measured values published in patent US20260130395A1, “Water Dispersible Botanical Compositions” (Aquila Black Limited, priority 2021, published 2026).

How the values were obtained:
Assay type in all cases: physicochemical
[1] = Stability of cannabinoid entourage and Vitamin E components of the powder concentrate by LCMSMS; details: for Stability of Plant-Derived Cannabinoid Compounds in Powder Concentrate: powder stored at 21-25° C.
Protocol: At each time period, 0.05 g of powder was dissolved in 10 ml-15 of ethanol, diluted to fall within the analytical range, and injected into the LCMSMS for analysis.

[2] = Stability of cannabinoid compounds and Vitamin E components in Beverage 1 (AB White) by LCMSMS; details: for storage time after which some slight degradation is shown: monitored 570 days
Protocol: The stability of the plant-derived cannabinoid compounds and Vitamin E components of the beverage stored 8° C. and at room temperature (21-25° C.) were monitored, over a period of 570 days via Liquid Chromatography-tandem Mass Spectrometry [LCMSMS, Agilent 6590, C18, 3×50 mm, 2.7 m (Agilent InfinityLab Poroshell 120 EC-C18), Electrospray Ionization detector]. The LCMSMS was calibrated for 0-1000 ng/ml cannabinoids with the same resin material used in the preparation of the concentrates. At each time period, 100 ml of beverage was diluted with 10 ml of methanol and injected into the LCMSMS for analysis.

[3] = Stability of cannabinoid compounds and Vitamin E components in Beverage 2 (AB Red) by LCMSMS; details: monitored 570 days
Protocol: The stability of the plant-derived cannabinoid compounds and Vitamin E components of the beverage stored 8° C. and at room temperature (21-25° C.) were monitored, over a period of 570 days via Liquid Chromatography-tandem Mass Spectrometry [LCMSMS, AGilent 6590, C18, 3×50 mm, 2.7 m (Agilent InfinityLab Poroshell 120 EC-C18), Electrospray Ionization detector]. The LCMSMS was calibrated for 0-50 ng/ml cannabinoids with the same resin material used in the preparation of the concentrates. At each time period, 100 ml of beverage was diluted with 10 ml of methanol and injected into the LCMSMS for analysis.

[4] = Stability of Nanoemulsion Concentrate 3 (α-tocopherol and Vitamin B12 content) by LCMSMS; details: for Stability of Vitamin B12 in Nanoemulsion Concentrate 3: average of triplicate
Protocol: At each time period (0, 7, 28, 60, 120, 150 and 180 days), triplicate samples were analysed for content of α-tocopherol and Vitamin B12.
(FIGS. 14 and 15, Table 13). Data reported in Table 13 and plotted in FIGS. 14 and 15 are average values of the triplicate measurements taken.

## C=C(C)[C@@H]1CCC(C)=C[C@H]1c1c(O)cc(CCCCC)cc1O [CBD, cannabidiol, reference compound]
[1]; powder concentrate stored at 21-25° C., 570 days
  degradation over the entire period (in words): no significant degradation
[1]; 0 days
  Stability of Plant-Derived Cannabinoid Compounds in Powder Concentrate: 5.85 mg/g powder
[1]; 1 days
  Stability of Plant-Derived Cannabinoid Compounds in Powder Concentrate: 5.69 mg/g powder
[1]; 2 days
  Stability of Plant-Derived Cannabinoid Compounds in Powder Concentrate: 5.76 mg/g powder
[1]; 3 days
  Stability of Plant-Derived Cannabinoid Compounds in Powder Concentrate: 5.8 mg/g powder
[1]; 5 days
  Stability of Plant-Derived Cannabinoid Compounds in Powder Concentrate: 5.84 mg/g powder
[1]; 8 days
  Stability of Plant-Derived Cannabinoid Compounds in Powder Concentrate: 5.91 mg/g powder
[1]; 9 days
  Stability of Plant-Derived Cannabinoid Compounds in Powder Concentrate: 6.01 mg/g powder
[1]; 10 days
  Stability of Plant-Derived Cannabinoid Compounds in Powder Concentrate: 5.69 mg/g powder
[1]; 11 days
  Stability of Plant-Derived Cannabinoid Compounds in Powder Concentrate: 6.00 mg/g powder
[1]; 12 days
  Stability of Plant-Derived Cannabinoid Compounds in Powder Concentrate: 5.76 mg/g powder
[1]; 15 days
  Stability of Plant-Derived Cannabinoid Compounds in Powder Concentrate: 5.85 mg/g powder
[1]; 16 days
  Stability of Plant-Derived Cannabinoid Compounds in Powder Concentrate: 5.97 mg/g powder
[1]; 17 days
  Stability of Plant-Derived Cannabinoid Compounds in Powder Concentrate: 5.97 mg/g powder
[1]; 18 days
  Stability of Plant-Derived Cannabinoid Compounds in Powder Concentrate: 6.01 mg/g powder
[1]; 19 days
  Stability of Plant-Derived Cannabinoid Compounds in Powder Concentrate: 5.74 mg/g powder
[1]; 22 days
  Stability of Plant-Derived Cannabinoid Compounds in Powder Concentrate: 5.84 mg/g powder
[1]; 23 days
  Stability of Plant-Derived Cannabinoid Compounds in Powder Concentrate: 6.10 mg/g powder
[1]; 24 days
  Stability of Plant-Derived Cannabinoid Compounds in Powder Concentrate: 5.89 mg/g powder
[1]; 25 days
  Stability of Plant-Derived Cannabinoid Compounds in Powder Concentrate: 6.01 mg/g powder
[1]; 26 days
  Stability of Plant-Derived Cannabinoid Compounds in Powder Concentrate: 6.00 mg/g powder
[1]; 29 days
  Stability of Plant-Derived Cannabinoid Compounds in Powder Concentrate: 5.97 mg/g powder
[1]; 30 days
  Stability of Plant-Derived Cannabinoid Compounds in Powder Concentrate: 5.94 mg/g powder
[1]; 60 days
  Stability of Plant-Derived Cannabinoid Compounds in Powder Concentrate: 5.66 mg/g powder
[1]; 90 days
  Stability of Plant-Derived Cannabinoid Compounds in Powder Concentrate: 6.00 mg/g powder
[1]; 120 days
  Stability of Plant-Derived Cannabinoid Compounds in Powder Concentrate: 5.80 mg/g powder
[1]; 150 days
  Stability of Plant-Derived Cannabinoid Compounds in Powder Concentrate: 5.65 mg/g powder
[1]; 180 days
  Stability of Plant-Derived Cannabinoid Compounds in Powder Concentrate: 5.93 mg/g powder
[1]; 210 days
  Stability of Plant-Derived Cannabinoid Compounds in Powder Concentrate: 5.83 mg/g powder
[1]; 240 days
  Stability of Plant-Derived Cannabinoid Compounds in Powder Concentrate: 5.98 mg/g powder
[1]; 270 days
  Stability of Plant-Derived Cannabinoid Compounds in Powder Concentrate: 5.72 mg/g powder
[1]; 300 days
  Stability of Plant-Derived Cannabinoid Compounds in Powder Concentrate: 5.84 mg/g powder
[1]; 330 days
  Stability of Plant-Derived Cannabinoid Compounds in Powder Concentrate: 6.01 mg/g powder
[1]; 360 days
  Stability of Plant-Derived Cannabinoid Compounds in Powder Concentrate: 5.97 mg/g powder
[1]; 390 days
  Stability of Plant-Derived Cannabinoid Compounds in Powder Concentrate: 5.93 mg/g powder
[1]; 420 days
  Stability of Plant-Derived Cannabinoid Compounds in Powder Concentrate: 5.94 mg/g powder
[1]; 450 days
  Stability of Plant-Derived Cannabinoid Compounds in Powder Concentrate: 5.65 mg/g powder
[1]; 480 days
  Stability of Plant-Derived Cannabinoid Compounds in Powder Concentrate: 5.66 mg/g powder
[1]; 510 days
  Stability of Plant-Derived Cannabinoid Compounds in Powder Concentrate: 6.01 mg/g powder
[1]; 540 days
  Stability of Plant-Derived Cannabinoid Compounds in Powder Concentrate: 5.81 mg/g powder
[1]; 570 days
  Stability of Plant-Derived Cannabinoid Compounds in Powder Concentrate: 5.85 mg/g powder
[2]; AB White stored at 8° C., 0 days
  Stability of Plant-Derived Cannabinoid Compounds in AB White, 8° C.: 28.5 µg/mL
[2]; AB White stored at 8° C., 1 days
  Stability of Plant-Derived Cannabinoid Compounds in AB White, 8° C.: 27.65 µg/mL
[2]; AB White stored at 8° C., 2 days
  Stability of Plant-Derived Cannabinoid Compounds in AB White, 8° C.: 27.67 µg/mL
[2]; AB White stored at 8° C., 3 days
  Stability of Plant-Derived Cannabinoid Compounds in AB White, 8° C.: 27.96 µg/mL
[2]; AB White stored at 8° C., 5 days
  Stability of Plant-Derived Cannabinoid Compounds in AB White, 8° C.: 28.61 µg/mL
[2]; AB White stored at 8° C., 8 days
  Stability of Plant-Derived Cannabinoid Compounds in AB White, 8° C.: 28.47 µg/mL
[2]; AB White stored at 8° C., 9 days
  Stability of Plant-Derived Cannabinoid Compounds in AB White, 8° C.: 28.44 µg/mL
[2]; AB White stored at 8° C., 10 days
  Stability of Plant-Derived Cannabinoid Compounds in AB White, 8° C.: 27.87 µg/mL
[2]; AB White stored at 8° C., 11 days
  Stability of Plant-Derived Cannabinoid Compounds in AB White, 8° C.: 28.13 µg/mL
[2]; AB White stored at 8° C., 12 days
  Stability of Plant-Derived Cannabinoid Compounds in AB White, 8° C.: 28.10 µg/mL
[2]; AB White stored at 8° C., 15 days
  Stability of Plant-Derived Cannabinoid Compounds in AB White, 8° C.: 27.99 µg/mL
[2]; AB White stored at 8° C., 16 days
  Stability of Plant-Derived Cannabinoid Compounds in AB White, 8° C.: 28.04 µg/mL
[2]; AB White stored at 8° C., 17 days
  Stability of Plant-Derived Cannabinoid Compounds in AB White, 8° C.: 27.84 µg/mL
[2]; AB White stored at 8° C., 18 days
  Stability of Plant-Derived Cannabinoid Compounds in AB White, 8° C.: 27.87 µg/mL
[2]; AB White stored at 8° C., 19 days
  Stability of Plant-Derived Cannabinoid Compounds in AB White, 8° C.: 28.36 µg/mL
[2]; AB White stored at 8° C., 22 days
  Stability of Plant-Derived Cannabinoid Compounds in AB White, 8° C.: 28.50 µg/mL
[2]; AB White stored at 8° C., 23 days
  Stability of Plant-Derived Cannabinoid Compounds in AB White, 8° C.: 27.67 µg/mL
[2]; AB White stored at 8° C., 24 days
  Stability of Plant-Derived Cannabinoid Compounds in AB White, 8° C.: 28.44 µg/mL
[2]; AB White stored at 8° C., 25 days
  Stability of Plant-Derived Cannabinoid Compounds in AB White, 8° C.: 27.65 µg/mL
[2]; AB White stored at 8° C., 26 days
  Stability of Plant-Derived Cannabinoid Compounds in AB White, 8° C.: 27.73 µg/mL
[2]; AB White stored at 8° C., 29 days
  Stability of Plant-Derived Cannabinoid Compounds in AB White, 8° C.: 28.24 µg/mL
[2]; AB White stored at 8° C., 30 days
  Stability of Plant-Derived Cannabinoid Compounds in AB White, 8° C.: 27.93 µg/mL
[2]; AB White stored at 8° C., 60 days
  Stability of Plant-Derived Cannabinoid Compounds in AB White, 8° C.: 27.73 µg/mL
[2]; AB White stored at 8° C., 90 days
  Stability of Plant-Derived Cannabinoid Compounds in AB White, 8° C.: 27.87 µg/mL
[2]; AB White stored at 8° C., 120 days
  Stability of Plant-Derived Cannabinoid Compounds in AB White, 8° C.: 27.39 µg/mL
[2]; AB White stored at 8° C., 150 days
  Stability of Plant-Derived Cannabinoid Compounds in AB White, 8° C.: 28.59 µg/mL
[2]; AB White stored at 8° C., 180 days
  Stability of Plant-Derived Cannabinoid Compounds in AB White, 8° C.: 27.59 µg/mL
[2]; AB White stored at 8° C., 210 days
  Stability of Plant-Derived Cannabinoid Compounds in AB White, 8° C.: 27.76 µg/mL
[2]; AB White stored at 8° C., 240 days
  Stability of Plant-Derived Cannabinoid Compounds in AB White, 8° C.: 27.79 µg/mL
[2]; AB White stored at 8° C., 270 days
  Stability of Plant-Derived Cannabinoid Compounds in AB White, 8° C.: 28.07 µg/mL
[2]; AB White stored at 8° C., 300 days
  Stability of Plant-Derived Cannabinoid Compounds in AB White, 8° C.: 27.96 µg/mL
[2]; AB White stored at 8° C., 330 days
  Stability of Plant-Derived Cannabinoid Compounds in AB White, 8° C.: 27.33 µg/mL
[2]; AB White stored at 8° C., 360 days
  Stability of Plant-Derived Cannabinoid Compounds in AB White, 8° C.: 27.79 µg/mL
[2]; AB White stored at 8° C., 390 days
  Stability of Plant-Derived Cannabinoid Compounds in AB White, 8° C.: 27.50 µg/mL
[2]; AB White stored at 8° C., 420 days
  Stability of Plant-Derived Cannabinoid Compounds in AB White, 8° C.: 27.50 µg/mL
[2]; AB White stored at 8° C., 480 days
  Stability of Plant-Derived Cannabinoid Compounds in AB White, 8° C.: 27.13 µg/mL
[2]; AB White stored at 8° C., 510 days
  Stability of Plant-Derived Cannabinoid Compounds in AB White, 8° C.: 26.48 µg/mL
[2]; AB White stored at 8° C., 540 days
  Stability of Plant-Derived Cannabinoid Compounds in AB White, 8° C.: 26.51 µg/mL
[2]; AB White stored at 8° C., 570 days
  Stability of Plant-Derived Cannabinoid Compounds in AB White, 8° C.: 26.22 µg/mL
[2]; AB White stored at 8° C.
  storage time after which some slight degradation is shown: > 480 days
[2]; AB White stored at 21-25° C.
  storage time after which some slight degradation is shown: > 390 days
[3]; AB Red stored at 8° C.
  storage time after which some slight degradation is shown: > 420 days
[3]; AB Red stored at 21-25° C.
  storage time after which some slight degradation is shown: > 390 days

## Vitamin B12
[4]; Refrigerated (2-4° C.), 0 days
  Stability of Vitamin B12 in Nanoemulsion Concentrate 3: 28.67 ng/mL
[4]; Refrigerated (2-4° C.), 7 days
  Stability of Vitamin B12 in Nanoemulsion Concentrate 3: 30.33 ng/mL
[4]; Refrigerated (2-4° C.), 28 days
  Stability of Vitamin B12 in Nanoemulsion Concentrate 3: 29.33 ng/mL
[4]; Refrigerated (2-4° C.), 60 days
  Stability of Vitamin B12 in Nanoemulsion Concentrate 3: 30.00 ng/mL
[4]; Refrigerated (2-4° C.), 120 days
  Stability of Vitamin B12 in Nanoemulsion Concentrate 3: 32.00 ng/mL
[4]; Refrigerated (2-4° C.), 150 days
  Stability of Vitamin B12 in Nanoemulsion Concentrate 3: 29.67 ng/mL
[4]; Refrigerated (2-4° C.), 180 days
  Stability of Vitamin B12 in Nanoemulsion Concentrate 3: 32.50 ng/mL
[4]; Room Temperature (21-25° C.), 0 days
  Stability of Vitamin B12 in Nanoemulsion Concentrate 3: 28.67 ng/mL
[4]; Room Temperature (21-25° C.), 7 days
  Stability of Vitamin B12 in Nanoemulsion Concentrate 3: 24.00 ng/mL
[4]; Room Temperature (21-25° C.), 28 days
  Stability of Vitamin B12 in Nanoemulsion Concentrate 3: 22.67 ng/mL
[4]; Room Temperature (21-25° C.), 60 days
  Stability of Vitamin B12 in Nanoemulsion Concentrate 3: 22.67 ng/mL
[4]; Room Temperature (21-25° C.), 120 days
  Stability of Vitamin B12 in Nanoemulsion Concentrate 3: 19.67 ng/mL
[4]; Room Temperature (21-25° C.), 150 days
  Stability of Vitamin B12 in Nanoemulsion Concentrate 3: 19.00 ng/mL
[4]; Room Temperature (21-25° C.), 180 days
  Stability of Vitamin B12 in Nanoemulsion Concentrate 3: 16.50 ng/mL
[4]; after 180 days stored at 21-25° C.
  stability in Nanoemulsion Concentrate 3 (in words): some slight degradation
[4]; stored at 2-4° C., 180 days
  stability in Nanoemulsion Concentrate 3 (in words): high degree of stability
